The target in this assay is full length NS3/4a (Hepatitis C virus genotype 1b (isolate BK) (HCV), UniProt P26663). As to the kind of experiment: NS3 Protease Assay (Example A), FRET-based. The class given is biochemical. The settings on record: for IC50: HCV NS3 protease assay, full length NS3/4a, read-out: Assay A IC50 (μM) average; for pIC50: read-out: IC50 against the protease activity of the full length NS3/4a. The protocol: The HCV NS3 protease functions have been extensively studied and are considered as potential targets for antiviral therapy: see for example the many references listed in the introductory section of this application. Therefore, the activity of the compounds of the invention as anti-HCV agents was assessed using a full length HCV NS3 protease.
The protease activity of the full length NS3/4a was measured using a FRET-based assay utilizing a peptide substrate derived from the NS4A/B cleavage site (Anaspec) and labelled at one end with a quencher (QXL520) and at the other with a fluorophore (5-FAMsp). NS3/4a (produced in-house by literature methods) was incubated with test compounds and peptide substrate in 50 mM Tris pH8, 20 mM DTT, 1% CHAPS, 10% glycerol and 5% DMSO. The reaction was followed by monitoring the change in fluorescence on a Molecular Devices Gemini plate reader for 30 minutes at room temperature. Initial rates were calculated from the progress curves using SoftMax Pro (Molecular Devices). IC50 values were then calculated from replicate curves using Prism GraphPad software.

[1] abbreviates: stated as IC50 less than 30 μM or at least 40% inhibition at a concentration of 100 μM.

In general, IC50 refers to the midpoint of a concentration-inhibition curve. The term inhibition denotes the change of the read-out against control, counted positive when it falls. Lower therefore signals a response near the control.

Molecules are shown by their SMILES. pIC50: −log10 of the molar value. Where a name gives a salt, the structure may show the parent alone. Read-outs that look alike come from different tables or passages of the source.

Chain of full length NS3/4a (P26663 1027-1657): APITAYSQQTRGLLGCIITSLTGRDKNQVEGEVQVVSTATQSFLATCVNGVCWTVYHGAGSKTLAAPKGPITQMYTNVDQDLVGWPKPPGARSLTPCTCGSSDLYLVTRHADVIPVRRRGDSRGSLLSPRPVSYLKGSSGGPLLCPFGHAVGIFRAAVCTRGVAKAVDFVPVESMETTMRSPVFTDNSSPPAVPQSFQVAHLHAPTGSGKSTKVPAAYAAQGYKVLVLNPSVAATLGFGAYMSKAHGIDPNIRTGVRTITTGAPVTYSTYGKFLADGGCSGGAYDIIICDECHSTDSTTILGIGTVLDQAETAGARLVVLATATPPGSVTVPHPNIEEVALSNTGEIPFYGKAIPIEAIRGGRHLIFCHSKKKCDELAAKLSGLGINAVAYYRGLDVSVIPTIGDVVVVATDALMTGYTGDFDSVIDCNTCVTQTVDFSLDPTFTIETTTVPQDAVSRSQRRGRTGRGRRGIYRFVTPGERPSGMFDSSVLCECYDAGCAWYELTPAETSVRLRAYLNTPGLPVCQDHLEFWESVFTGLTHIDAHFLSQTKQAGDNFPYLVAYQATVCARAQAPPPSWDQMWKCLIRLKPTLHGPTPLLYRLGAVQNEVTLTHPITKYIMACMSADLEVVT

For the compound `CC[C@H](NC(=O)C1=CCCNC1)c1ccc(Cl)c(C(=O)c2cccnc2)c1F` [Example 287, N-[(1S)-1-{4-chloro-2-fluoro-3-[(pyridin-3-yl)carbonyl]phenyl}propyl]-1,2,5,6-tetrahydropyridine-3-carboxamide], the IC50 was determined as 0.14 µM and the pIC50 was > 6.00.
Consider `C[C@H](CC(N)=O)N[C@@H](c1ccc(Cl)c(C(=O)c2ccc(C#N)cc2)c1F)C1CC1` [Example 128, (3R)-3-{[(R)-{4-chloro-3-[(4-cyanophenyl)-carbonyl]-2-fluorophenyl}(cyclo-propyl)methyl]amino}-butanamide], for which the IC50 was 0.28 µM and the pIC50 was > 6.00.
The like results for `CC[C@H](NC(=O)CCN)c1ccc(Cl)c(C(=O)c2cccnc2)c1F` [Example 297, 3-amino-N-[(1S)-1-{4-chloro-2-fluoro-3-[(pyridin-3-yl)carbonyl]phenyl}propyl] propanamide] were, in that order, 0.15 µM and > 6.00.
Consider `[2H]C([2H])([2H])C([2H])([2H])[C@@H](N[C@H](C)CC(N)=O)c1ccc(Cl)c(C(=O)c2ccc3c(c2)OCC(=O)N3)c1F` [Example 124, (3R)-3-{[(1R)-1-{4-chloro-2-fluoro-3-[(3-oxo-3,4-dihydro-2H-1,4-benzoxazin-7-yl)carbonyl]phenyl} (2,2,3,3,3-deutero)propyl]amino}-butanamide], for which the IC50 stood at 1 µM and the pIC50 is 5.30 to 6.00.
The like results for `CC[C@@H](N)c1ccc(Cl)c(C(=O)c2ccc(F)cc2)c1F` [Example 8, (1R)-1-{4-chloro-2-fluoro-3-[(4-fluorophenyl)carbonyl]-phenyl}propan-1-amine] were, in that order, 0.19 µM and > 6.00.
The corresponding values for `COc1ccc([C@H](N)C2CC2)c(F)c1C(=O)c1ccc(F)cc1` [Example 196, (R)-cyclopropyl({2-fluoro-3-[(4-fluorophenyl)carbonyl]-4-methoxyphenyl})methanamine] are 2.3 µM and 5.30 to 6.00.
`CC[C@@H](NCC(N)=O)c1ccc(Cl)c(C(=O)c2cccnc2)c1F` [Example 164, 2-{[(1R)-1-{4-Chloro-2-fluoro-3-[(pyridin-3-yl)carbonyl]phenyl}propyl]amino}-acetamide] displayed an inhibition at 10 µM of 37%.
As to `CC[C@@H](N[C@H](C)CC(N)=O)c1ccc(Cl)c(C(=O)c2ccc(N)nn2)c1F` [Example 233, (3R)-3-{[(1R)-1-{3-[(6-aminopyridazin-3-yl)carbonyl]-4-chloro-2-fluorophenyl}propyl]amino}butanamide], the inhibition at 10 µM is 40%. The pIC50 under setting [1] was > 4.52.
Regarding `CC[C@@H](N)c1ccc(Cl)c(C(=O)c2ccc(N)nc2)c1F` [Example 1, 5-({3-[(1R)-1-aminopropyl]-6-chloro-2-fluorophenyl}carbonyl)-pyridin-2-amine], the IC50 stood at 0.089 µM and the pIC50 is > 6.00.
For the compound `CC[C@H](N)c1ccc(Cl)c(C(=O)c2cccnc2)c1F` [Example 26, (1S)-1-{4-chloro-2-fluoro-3-[(pyridin-3-yl)carbonyl]phenyl}propan-1-amine], the IC50 is 0.63 µM and the pIC50 was > 6.00.
For the compound `CC[C@@H](N[C@H](C)CC(=O)NCCO)c1ccc(Cl)c(C(=O)c2ccc(N)nc2)c1F` [Example 243, (3R)-3-{[(1R)-1-{3-[(6-aminopyridin-3-yl)carbonyl]-4-chloro-2-fluorophenyl}propyl]amino}-N-(2-hydroxyethyl)butanamide], the half-inhibitory concentration (IC50) is 0.43 µM.
`CC[C@@H](N[C@H](C)CC(N)=O)c1ccc(Cl)c(C(=O)c2ccc(N)c(C#N)c2)c1F` [Example 216, (3R)-3-{[(1R)-1-{3-[(4-amino-3-cyanophenyl)carbonyl]-4-chloro-2-fluorophenyl}propyl]amino} butanamide]: the IC50 was found to be 0.48 µM and the pIC50 was > 6.00.
On to `CC[C@@H](N[C@H](C)CC(N)=O)c1ccc(Cl)c(C(=O)c2ccccn2)c1F` [Example 105, (3R)-3-{[(1R)-1-{4-chloro-2-fluoro-3-[(pyridin-2-yl)carbonyl]phenyl}propyl]amino}butanamide], for which the inhibition at 30 µM turned out to be 57%. In addition, under setting [1], the pIC50 was > 4.52.
As for `CC[C@H](NC(=O)C1CCNC1)c1ccc(Cl)c(C(=O)c2cccnc2)c1F` (stereo partly drawn) [Example 295, N-[(1S)-1-{4-chloro-2-fluoro-3-[(pyridin-3-yl)carbonyl]phenyl}propyl] pyrrolidine-3-carboxamide], 3 µM produced 38% inhibition.
`CC[C@@H](N)c1ccc(Cl)c(C(=O)c2cncnc2)c1F` [Example 12, (1R)-1-{4-chloro-2-fluoro-3-[(pyrimidin-5-yl)carbonyl]phenyl}-propan-1-amine] displayed an inhibition at 30 µM of 47%. Moreover, the pIC50 under setting [1] is > 4.52.
For `CC[C@@H](N)c1ccc(Cl)c(C(=O)c2cc(C)on2)c1F` [Example 21, (1R)-1-{4-chloro-2-fluoro-3-[(5-methyl-1,2-oxazol-3-yl)carbonyl]phenyl}propan-1-amine], the IC50 was determined as 1 µM and the pIC50 is 5.30 to 6.00.
As to `CCC[C@@H](N)c1ccc(Cl)c(C(=O)c2ccc(N)nc2)c1F` [Example 66, 5-({3-[(1R)-1-aminobutyl]-6-chloro-2-fluorophenyl}carbonyl)pyridin-2-amine], the IC50 is 0.2 µM.
Consider `C[C@H](CC(N)=O)N[C@@H](c1ccc(Cl)c(C(=O)c2ccccc2)c1F)C1CC1` [Example 112, (3R)-3-{[(R)-(3-benzoyl-4-chloro-2-fluorophenyl)(cyclopropyl)-methyl]amino}butanamide], for which the IC50 turned out to be 0.62 µM.
As for `CC[C@@H](N)c1ccc(Cl)c(C(=O)c2ccc(NC)nc2)c1F` [Example 36, 5-({3-[(1R)-1-aminopropyl]-6-chloro-2-fluorophenyl}carbonyl)-N-methylpyridin-2-amine], the IC50 came out at 0.71 µM and the pIC50 was > 6.00.
The corresponding values for `CCC(NC1CCCC1C(N)=O)c1ccc(Cl)c(C(=O)c2ccc(N)nc2)c1F` (single isomer, unassigned) [Example 126, 2-{[1-{3-[(6-aminopyridin-3-yl)carbonyl]-4-chloro-2-fluorophenyl}propyl]amino} cyclopentane-1-carboxamide] are 0.12 µM and > 6.00.
Take `CC[C@@H](NC1CC1)c1ccc(Cl)c(C(=O)c2cccnc2)c1F` [Example 296, N-[(1R)-1-{4-chloro-2-fluoro-3-[(pyridin-3-yl)carbonyl]phenyl}-propyl]cyclopropanamine]: the half-inhibitory concentration (IC50) came out at 13 µM. Also, the pIC50 under setting [1] was > 4.52.
As to `CC[C@@H](N)c1ccc(C)c(C(=O)c2ccccc2)c1F` [Example 39, (1R)-1-(3-benzoyl-2-fluoro-4-methylphenyl)propan-1-amine], the half-inhibitory concentration (IC50) was 0.73 µM and the pIC50 was > 6.00.
Regarding `N[C@@H](c1ccc(Cl)c(C(=O)c2ccc(CO)cc2)c1F)C1CC1` [Example 68, [4-({3-[(R)-amino(cyclopropyl)methyl]-6-chloro-2-fluorophenyl}-carbonyl)phenyl]methanol hydrochloride], the IC50 is 0.21 µM.
For `CC[C@@H](NC(=O)C1=CCNC1)c1ccc(Cl)c(C(=O)c2cccnc2)c1F` [Example 291, N-[(1R)-1-{4-chloro-2-fluoro-3-[(pyridin-3-yl)carbonyl]phenyl}propyl]-2,5-dihydro-1H-pyrrole-3-carboxamide], 3 µM produced 51% inhibition and the pIC50 is 5.30 to 6.00.
On to `CC[C@@H](N)c1ccc(Cl)c(C(=O)c2cc[n+]([O-])cc2)c1F` [Example 42, [3-((R)-1-Amino-propyl)-6-chloro-2-fluoro-phenyl]-(1-oxy-pyridin-4-yl)-methanone], for which the IC50 stood at 0.53 µM and the pIC50 was > 6.00.
As to `CC[C@@H](N[C@H](C)CC(=O)NCCN)c1ccc(Cl)c(C(=O)c2ccc(N)nc2)c1F` [Example 241, (3R)-N-(2-aminoethyl)-3-{[(1R)-1-{3-[(6-aminopyridin-3-yl)carbonyl]-4-chloro-2-fluorophenyl}propyl]amino}-butanamide], the IC50 stood at 0.036 µM.
In the case of `CC[C@@H](N)c1ccc(Cl)c(C(=O)c2ccc(C#N)c(OC)c2)c1F` [Example 222, 4-({3-[(1R)-1-aminopropyl]-6-chloro-2-fluorophenyl}carbonyl)-2-methoxybenzonitrile], the inhibition at 0.03 µM (@ 0.03 uM) stood at 45%. Also, the pIC50 under setting [1] is > 4.52.
On to `C[C@H](CC(N)=O)N[C@@H](c1ccc(Cl)c(C(=O)c2ccc(N)c(C#N)c2)c1F)C1CC1` [Example 190, (3R)-3-{[(R)-{3-[(4-amino-3-cyanophenyl)carbonyl]-4-chloro-2-fluorophenyl}(cyclopropyl)methyl]amino}butanamide], for which the 50% inhibitory concentration (IC50) was determined as 0.37 µM. Under setting [1], the pIC50 was > 4.52.
For the compound `CC[C@@H](N[C@H](C)CC(N)=O)c1ccc(Cl)c(C(=O)c2ccc(N)nc2)c1F` [Example 266, (3R)-3-{[(1R)-1-{3-[(6-aminopyridin-3-yl)carbonyl]-4-chloro-2-fluorophenyl}(2,2,3,3,3-deutero)propyl]amino}butanamide], the half-inhibitory concentration (IC50) worked out at 1.1 µM and the pIC50 is 5.30 to 6.00.
For `NC(=O)CCN[C@@H](c1ccc(Cl)c(C(=O)c2cnc(N)cn2)c1F)C1CC1` [Example 185, 3-{[(R)-{3-[(5-aminopyrazin-2-yl)carbonyl]-4-chloro-2-fluorophenyl}(cyclo-propyl)methyl]amino}-propanamide], the IC50 was determined as 0.6 µM.

The values above are taken from patent US9145354B2, “Pharmaceutical compounds” (priority 2011, dated 2015).
